Assays:
[1] = system: Mtb H37Rv resistant mutant 529-10X-107-B8 (inhA D148E); format: cell-based, Mycobacterium tuberculosis
[2] = system: BCG-529-108-10X-2 (InhA M161V); format: cell-based, M bovis BCG
[3] = system: Mtb H37Rv resistant mutant 529-10X-108-B6; format: cell-based, Mycobacterium tuberculosis
[4] = system: Mtb H37Rv resistant mutant 529-5X-108-B4 (inhA G96V); format: cell-based, Mycobacterium tuberculosis
[5] = system: Mtb H37Rv resistant mutant 529-5X-108-S1 (inhA D148G); format: cell-based, Mycobacterium tuberculosis
[6] = system: BCG-916-108-25X-B1 (InhA M161I); format: cell-based, M bovis BCG
[7] = system: Mtb H37Rv resistant mutant 529-5X-108-B2 (inhA S94A); format: cell-based, Mycobacterium tuberculosis
[8] = system: Mtb H37Rv resistant mutant 529-5X-108-S3 (inhA D148G); format: cell-based, Mycobacterium tuberculosis

Structure (SMILES)	Compound MIC50 [1] [µM]	Compound MIC50 [2] [µM]	Compound MIC50 [3] [µM]	Compound MIC50 [4] [µM]	Compound MIC50 [5] [µM]	Compound MIC50 [6] [µM]	Compound MIC50 [7] [µM]	Compound MIC50 [8] [µM]
CCc1cc(C(N)=S)ccn1 [Ethionamide, reference compound]	1.91	>60	1.41	1.32	1.53	>60	9.74	
NNC(=O)c1ccncc1 [Isoniazid, isoniazid, reference compound]	0.31	1.27	0.11	0.09	0.15	1.48	0.86	0.15
O=c1[nH]c(CC2CCCCC2)cc(O)c1-c1ccccc1 [PD2, 6-(cyclohexylmethyl)-4-hydroxy-3-phenylpyridin-2(1H)-one]	>40		>40	14.60	1.46		4.04	1.73
CC1(C)CCC(Cc2cc(O)c(-c3ccccc3)c(=O)[nH]2)CC1 [PD10, 6-((4,4-dimethylcyclohexyl)methyl)-4-hydroxy-3-phenylpyridin-2(1H)-one]	>5.0	3.02	>5.0	>5.0	0.29	3.2	0.78	0.38
CC(C)Cc1cc(O)c(-c2ccccc2)c(=O)[nH]1 [PD12, 4-hydroxy-6-isobutyl-3-phenylpyridin-2(1H)-one]	>40	27.88	>40	>40	>40	21.52	>40	>40

From patent US9546138B2, “Pyridone derivatives and uses thereof in the treatment of tuberculosis” (priority 2012, dated 2017)
